According to the CheMixHub viscosity set:

Experiment: xn = mol fraction of the nth substance listed

NC=O + OCCO
viscosity [mPa·s]
Conditions	293.15 K	298.15 K	303.15 K	308.15 K	313.15 K	318.15 K
100 kPa, x1 = 0.1003	16.54	13.52	11.1	–	–	–
100 kPa, x1 = 0.2002	13.55	10.99	9.12	–	–	–
100 kPa, x1 = 0.299	11.22	8.878	7.232	–	–	–
100 kPa, x1 = 0.3975	9.55	7.61	6.151	–	–	–
100 kPa, x1 = 0.5027	7.99	6.541	5.273	–	–	–
100 kPa, x1 = 0.6014	6.85	5.592	4.603	–	–	–
100 kPa, x1 = 0.7027	5.827	4.71	3.99	–	–	–
100 kPa, x1 = 0.7999	4.96	4.15	3.647	–	–	–
100 kPa, x1 = 0.9014	4.413	3.817	3.402	–	–	–
101 kPa, x1 = 0.0612	17.53	14.25	11.64	9.225	7.801	6.584
101 kPa, x1 = 0.1204	15.35	12.26	9.875	7.684	6.506	5.505
101 kPa, x1 = 0.1859	13.53	10.7	8.482	6.488	5.384	4.554
101 kPa, x1 = 0.3302	10.35	8.058	6.301	4.664	3.8	3.156
101 kPa, x1 = 0.4517	8.301	6.445	5.002	3.702	3.055	2.554
101 kPa, x1 = 0.5643	6.692	5.306	4.172	3.206	2.716	2.379
101 kPa, x1 = 0.6596	5.526	4.526	3.708	2.947	2.556	2.322
101 kPa, x1 = 0.7454	4.685	4.003	3.403	2.808	2.476	2.292
101 kPa, x1 = 0.8195	4.186	3.721	3.234	2.753	2.45	2.271
101 kPa, x1 = 0.8883	3.908	3.526	3.126	2.727	2.438	2.251
101 kPa, x1 = 0.9491	3.714	3.39	3.025	2.692	2.425	2.236
101 kPa, x2 = 0.0761	–	–	–	2.392	–	–
101 kPa, x2 = 0.1538	–	–	–	2.439	–	–
101 kPa, x2 = 0.2311	–	–	–	2.487	–	–
101 kPa, x2 = 0.3245	–	–	–	2.636	–	–
101 kPa, x2 = 0.4125	–	–	–	2.996	–	–
101 kPa, x2 = 0.5236	–	–	–	4.026	–	–
101 kPa, x2 = 0.6337	–	–	–	5.164	–	–
101 kPa, x2 = 0.7468	–	–	–	6.594	–	–
101 kPa, x2 = 0.8596	–	–	–	8.193	–	–
